Key:
Assay type in all cases: in vivo
[1] = system: non-transgenic soybean line Jack; assay: Field efficacy against glufosinate, non-transgenic soybean line Jack; conditions: 900 g ai/ha glufosinate at V2/V3 stage and second treatment at V5-V6 stage, 8 locations in the United States
Method: (§1) SYHT0H2 soybean plants were tested for efficacy against glufosinate in 8 locations in the United States. The non-transgenic soybean line Jack was used as a control. Soybean plants, both SYHT0H2 and Jack, were treated with 900 g ai/ha of glufosinate at the V2/V3 stage and then a second treatment at the V5-V6 stage. They were then assessed for percentage of leaves showing injury at 4-8 days after treatment (DAT), 13-20 DAT, and 26-35 DAT.

[2] = system: SYHT0H2 soybean plants; assay: Field efficacy against glufosinate, SYHT0H2 soybean plants; conditions: 900 g ai/ha glufosinate at V2/V3 stage and second treatment at V5-V6 stage, 8 locations in the United States
Method: as §1

[3] = system: non-transgenic soybean line Jack; assay: Field efficacy against mesotrione, non-transgenic soybean line Jack; conditions: 210 g ai/ha mesotrione at V2/V3 stage, 5 locations in the United States
Method: (§2) Event SYHT0H2 soybean plants were tested for efficacy against mesotrione in 5 locations in the United States. The non-transgenic soybean line Jack was used as a control. Soybean plants, both SYHT0H2 and Jack, were treated with 210 g ai/ha of mesotrione at the V2/V3 stage and then assessed for percentage of leaves showing injury at 4-7 days after treatment (DAT), 13-17 DAT, and 25-33 DAT.

[4] = system: Event SYHT0H2 soybean plants; assay: Field efficacy against mesotrione, event SYHT0H2 soybean plants; conditions: 210 g ai/ha mesotrione at V2/V3 stage, 5 locations in the United States
Method: as §2

[5] = system: Event SYHT0H2 soybean plants; assay: Herbicide tolerance performance of transgenic soybean transformants; conditions: event SYHT0H2 from a population of about 90 transformants
Source text: After plants became established in the soil and new growth appeared (˜1-2 weeks), plants were sampled and tested for the presence of desired transgene by TAQMAN® analysis using appropriate probes for the HPPD genes, or promoters (for example prCMP). Positive plants were transplanted into 4″ square pots containing Fafard #3 soil. Sierra 17-6-12 slow release fertilizer was incorporated into the soil at the recommended rate. The plants were then relocated into a standard greenhouse to acclimatize (˜1 week). The environmental conditions were: 27° C. day; 21° C. night; 14 hour photoperiod (with supplemental light); ambient humidity. After acclimatizing (˜1 week), the plants were sampled and tested in detail for the presence and copy number of inserted transgenes. Transgenic soybean plants were grown to maturity for T1 seed production. T1 plants were grown up, and after TAQMAN® analysis, homozygous plants were grown for seed production. Transgenic seeds and progeny plants were used to further evaluate their herbicide tolerance performance and molecular characteristics.

Compound	% Injury (percentage of leaves showing injury) ([1]; 4-8 DAT)	% Injury (percentage of leaves showing injury) ([1]; 13-20 DAT)	% Injury (percentage of leaves showing injury) ([1]; 26-35 DAT)	% Injury (percentage of leaves showing injury) ([2]; 4-8 DAT)	% Injury (percentage of leaves showing injury) ([2]; 13-20 DAT)	% Injury (percentage of leaves showing injury) ([2]; 26-35 DAT)	% Injury (percentage of leaves showing injury) ([3]; 4-7 DAT)	% Injury (percentage of leaves showing injury) ([3]; 13-17 DAT)	% Injury (percentage of leaves showing injury) ([3]; 25-33 DAT)	% Injury (percentage of leaves showing injury) ([4]; 4-7 DAT)	% Injury (percentage of leaves showing injury) ([4]; 13-17 DAT)	% Injury (percentage of leaves showing injury) ([4]; 25-33 DAT)	herbicide tolerance of event SYHT0H2 [5]
2-amino-4-methylphosphinobutyric acid [glufosinate]	100%	100%	100%	9%	5%	0%	–	–	–	–	–	–	–
CS(=O)(=O)c1ccc(C(=O)C2C(=O)CCCC2=O)c([N+](=O)[O-])c1 [mesotrione]	–	–	–	–	–	–	46.5%	81%	62.4%	13.2%	4.7%	0%	high level of mesotrione tolerance
